Test results: patent US12673039B2, “Methods of inducing autophagy using coumarin derivatives and related compounds” (Buck Institute for Research on Aging, priority 2019, dated 2026)

Experiments:
[1] = test system: C. elegans; experiment: Autophagic flux and lysosomal reporters in C. elegans; type: in vivo
Method: FIGS. 12A-12B illustrate that coumarin 106 (“C1”, “AIC106”) promotes induction of autophagic markers. FIG. 12A) Increased APG:APL fusion as assessed by green to red fluorescence shift following addition of 20 μM C1 versus DMSO-only control to ttdLGG-1:GFP worms expressing a pH sensitive GFP. FIG. 12B) Increases in autophagic flux as assessed by increased GFP fluorescence within p62::GFP and plmp-1::GFP expressing worms following addition of 20 μM C1 versus DMSO-only controls.
FIG. 19, panels A-G: AIC106 increases autophagic flux and lysosomal function in C. elegans. Panel A) Relative fold change in mRNA of autophagosome-specific protein p62/Sqstm-1 compared to DMSO-control was quantified using qRT-PCR in young adult wild-type N2 worms post-24 hours treatment with AIC106. [N=3 independent experiments (mean±SD). *p<0.05 and **p<0.01, by one-way ANOVA with Sidak's multiple comparisons test]. Panel B) Changes in p62/SQSTM-1 expression were measured by quantifying GFP intensity in an individual GFP-tagged p62/SQSTM-1 worm (HZ589) post-24 hours treatment with AIC106 and DMSO-control, followed by RNAi treatment. [N=3 independent experiments (mean±SD). ****p<0.0001, by one-way ANOVA with Tukey's multiple comparisons test]. Panel C) p62/SQSTM-1; GFP (HZ589) was monitored by fluorescence microscopy. Panel D) Changes in lysosomal number were measured by quantifying GFP intensity in an individual GFP-tagged LMP-1 worm (RT258) post-24 hours treatment with AIC106 and DMSO-control. [N=3 independent experiments (mean±SD). ****p<0.0001, by unpaired t-test]. Panel E) RT258 worms were monitored by fluorescence microscopy. Panel F) Changes in lysosomal number were measured by quantifying fluorescence intensity in an individual Lysotracker Red stained wild type N2 worms post-24 hours treatment with AIC106 and DMSO-control. [N=3 independent experiments (mean±SD). ****p<0.0001, by unpaired t-test]. Panel G) Lysotracker Red stained wild type N2 worms were monitored by fluorescence microscopy.
FIG. 26, panels A-B: AIC106 enhances autophagy flux in C. elegans. Panel A) Monitoring of tandem reporter lgg-1p::mCherry::GFP::lgg-1 expressing worms was performed by fluorescence microscopy. Panel B) Effects of AIC106 treatment on GFP and mCherry by time were measured by fluorescence microscopy after AIC106 or DMSO-control treatment for 24 h. [N=3 independent experiments (mean±SD). *p<0.05 and **p<0.01, by unpaired t-test].
Synchronized populations of day-1 adult worms expressing reporter GFP transgene or stained with a dye/stain (Lysotracker and TMRM) and grown at 20° C. were transferred to compound or DMSO plates. Fluorescence expression was analyzed at the time specified for each individual strain (see figure legends). Worms were paralyzed in 2 mM levamisole, mounted on 2% agarose pads with glass cover slips, and imaged immediately with an Axio Zeiss microscope. Appropriate filters were used to visualize GFP, Lysotracker red and TMRM were visualized under rhodamine filter. Approximately 20-40 worms per treatment were used. Fluorescence intensity normalized to worm area was measured using NIH ImageJ software. Transgenic reporters used in the study are HZ589 him-5(e1490) V; bpIs151[sqst-1p::sqst-1::GFP+unc-76(+)], RT258 unc-119(ed3) III; pwIs50 [lmp-1::GFP+Cbr-unc-119(+)], UA44 UA44(baIn11[Pdat-1::α-syn, Pdat-1::GFP]), AM141 rmIs133 [unc-54p::Q40::YFP]LAMP-1:GFP.
Synchronized day-1 adult N2 worms were transferred to DMSO control or compound treated plates for 24 hours at 20° C. On day-2, worms were transferred to 35 mm OP50 seeded assay plates treated with compound or DMSO plates overlaid with 1 μM LysoTracker™ Red DND-99 (Molecular Probes) for 24 hours at 20° C. Post-24 hours on LysoTracker stain, worms were picked and washed in a fresh drop of 1×M9 medium to remove excess stain and mounted on 2% agarose pad slides for microscopic visualization. Worm images were taken in a Zeiss Imager Z1 fluorescence microscope using rhodamine filters. […]

[2] = test system: AM141 worm; experiment: polyQ40 aggregation in AM141 worms; type: in vivo, C. elegans; details: dose dependent
Text: FIG. 21, panels A-F: AIC106 prevents neuronal loss and proteotoxicity in strains expressing human neurotoxic proteins. Panel A) Dopaminergic neuronal loss in day-5 UA44 worms was quantified by scoring percentage of worms with intact 4-CEP neurons in AIC106 and DMSO-control treatment. [N=3 independent experiments (mean±SD). ***p<0.001, by one-way ANOVA with Tukey's multiple comparisons test]. Motor function in (panel B) day-7 NL5901 and (panel C) day-5 CL2006 worms were quantified by scoring number of thrashes for an individual worm over the period of 30 seconds (dots) in AIC106 and DMSO-control treatment. […] Panel D) Motor function in temperature sensitive (enhanced paralysis at 25° C.) CL4176 worms was determined by scoring percent of worms paralyzed in AIC106 and DMSO-control treatment. […] P-value calculated by Logrank test]. Panel F) Effect of AIC106 on polyQ40 aggregation was determined by scoring number of polyQ40-YFP fluorescent puncta in an individual AM141 worm treated with AIC106 and DMSO-control. […]
Synchronized populations of day-1 adult worms expressing reporter GFP transgene or stained with a dye/stain (Lysotracker and TMRM) and grown at 20° C. were transferred to compound or DMSO plates. Fluorescence expression was analyzed at the time specified for each individual strain (see figure legends). […] Fluorescence intensity normalized to worm area was measured using NIH ImageJ software. […]

SMILES: O=c1oc2c3c4c(cc2c2c1CCC2)CCCN4CCC3 [C1, 2,3,6,7,10,11-Hexahydro-1H,5H-cyclopenta(3,4)(1)benzopyrano(6,7,8-ij)quinolizin-12(9H)-one]
- autophagic flux ([1]; 20 μM C1 (FIG. 12)): increased autophagic flux
- tandem mCherry-GFP-LGG-1 reporter (autophagosomal:lysosomal fusion) ([1]; 24 h (FIG. 26)): decreased GFP intensity in conjunction with significant increase in mCherry-only intensity
- p62/SQSTM-1 protein levels (GFP) ([1]; HZ589 worms, 24 hours): enhanced p62/SQSTM-1 protein levels
- lysosomal biogenesis by LysoTracker red staining ([1]; N2 worms): validated via LysoTracker red staining
- p62/Sqstm-1 mRNA ([1]; N2 worms, 24 hours): increased mRNA levels of p62/Sqstm-1
- lysosomal biogenesis (GFP-tagged LAMP-1/LMP-1) ([1]; RT258 worms, 24 hours): increase in lysosomal biogenesis
- poly-Q40 aggregates [2]: significantly decreased poly-Q40 aggregates
